Laboratory results reported in US8785488B2 (Exelixis Patent Company LLC, priority 2009, dated 2014).

Assays:
h-TGR5 = target: T1, h-TGR5 (Homo sapiens, UniProt Q8TDU6); test: TGR5 cAMP Assay using Cisbio cAMP Dynamic2 htrf kit (hTGR5CRE-luc HEK 293 cells); format: cell-based; conditions: h-TGR5 cAMP EC50, Table 1; read-out: cAMP (EC50)
T1 construct: expressed in transfected cells
T1 sequence (Q8TDU6 1-330): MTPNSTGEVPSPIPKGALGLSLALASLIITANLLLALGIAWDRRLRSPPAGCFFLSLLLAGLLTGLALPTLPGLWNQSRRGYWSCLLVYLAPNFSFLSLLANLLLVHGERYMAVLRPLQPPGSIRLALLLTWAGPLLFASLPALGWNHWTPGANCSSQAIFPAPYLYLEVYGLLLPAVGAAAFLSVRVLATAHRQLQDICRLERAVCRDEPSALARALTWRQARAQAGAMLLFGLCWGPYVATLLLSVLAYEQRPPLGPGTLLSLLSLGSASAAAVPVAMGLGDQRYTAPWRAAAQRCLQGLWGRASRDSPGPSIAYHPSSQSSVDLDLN
How it was run: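 […], 4000 hTGR5CRE-luc HEK 293 cells per well, with 0.5 mM IBMX and d2-cAMP, were incubated 30 min at room temperature with compounds in 8-point half-log series, in quadruplicate.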

human TGR5 (h-TGR5) = target: T2, human TGR5 (h-TGR5) (Homo sapiens, UniProt Q8TDU6); test: TGR5/CRE-Luciferiase Assay (HEK 293 hTGR5/CRE-Luc cells); format: cell-based; conditions: h-TGR5 CRE-Luc EC50, Table 1; read-out: CRE-Luc (EC50)
T2 construct: expressed in transfected cells
T2 sequence (Q8TDU6 1-330): T1 sequence (Q8TDU6 1-330)
How it was run: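 HEK293 cells stably carrying hTGR5 and a CRE-luciferase reporter were exposed to serially diluted compounds (diluted in DMEM with 5% DMSO) for 6 h. Cells were then lysed in luciferase buffer, luminescence was read, and EC50 values were derived from dose-response curves.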

| SMILES | EC50 (h-TGR5) [nM] | EC50 (human TGR5 (h-TGR5)) [nM] |
| --- | --- | --- |
| COc1cc(C(C)(C)c2cnc(SCc3c(F)cc(C(=O)N[C@H](CCCNC(=N)N)C(=O)O)cc3Cl)n2-c2ccc(F)cc2)ccc1Cl [N-2-{[3-chloro-4-({[5-{1-[4-chloro-3-(methyloxy)phenyl]-1-methylethyl}-1-(4-fluorophenyl)-1H-imidazol-2-yl]thio}methyl)-5-fluorophenyl]carbonyl}-D-arginine] | < 100 | < 100 |
| COc1cc(C(C)(C)c2cnc(SCc3c(F)cc(C(=O)N[C@@H](CCCNC(=N)N)C(=O)O)cc3Cl)n2-c2ccc(F)cc2)ccc1Cl [N-2-{[3-chloro-4-({[5-{1-[4-chloro-3-(methyloxy)phenyl]-1-methylethyl}-1-(4-fluorophenyl)-1H-imidazol-2-yl]thio}methyl)-5-fluorophenyl]carbonyl}-L-arginine] | < 100 | < 100 |
| COc1cc(C(C)(C)c2cnc(SCc3c(F)cc(C(=O)N[C@@H](CCCN)C(=O)O)cc3Cl)n2-c2ccc(F)cc2)ccc1Cl [N-2-{[3-chloro-4-({[5-{1-[4-chloro-3-(methyloxy)phenyl]-1-methylethyl}-1-(4-fluorophenyl)-1H-imidazol-2-yl]thio}methyl)-5-fluorophenyl]carbonyl}-L-ornithine] | < 100 | < 100 |
| COc1cc(C(C)(C)c2cnc(SCc3c(F)cc(C(=O)NC(CCCNC(=N)N)C(=O)O)cc3Cl)n2-c2ccc(F)cc2)ccc1F [N-2-{[3-chloro-5-fluoro-4-({[5-{1-[4-fluoro-3-(methyloxy)phenyl]-1-methylethyl}-1-(4-fluorophenyl)-1H-imidazol-2-yl]thio}methyl)phenyl]carbonyl}-D-arginine] | < 100 | < 100 |
| COc1cc(C(C)(C)c2cnc(SCc3c(F)cc(C(=O)NCCCC(N)C(=O)O)cc3Cl)n2-c2ccc(F)cc2)ccc1Cl [N-5-{[3-chloro-4-({[5-{1-[4-chloro-3-(methyloxy)phenyl]-1-methylethyl}-1-(4-fluorophenyl)-1H-imidazol-2-yl]thio}methyl)-5-fluorophenyl]carbonyl}-L-ornithine] | < 100 | < 100 |
| COc1cc(C(C)(C)c2cnc(SCc3c(F)cc(C(=O)NC(CCCCNC(=N)N)C(=O)O)cc3Cl)n2-c2ccc(F)cc2)ccc1Cl [N-6-[amino(imino)methyl]-N-2-{[3-chloro-4-({[5-{1-[4-chloro-3-(methyloxy)phenyl]-1-methylethyl}-1-(4-fluorophenyl)-1H-imidazol-2-yl]thio}methyl)-5-fluorophenyl]carbonyl}-L-lysine] | < 100 | < 100 |
| COc1cc(C(C)(C)c2cnc(SCc3c(F)cc(OCCNC(=N)NC(=N)N)cc3F)n2-c2ccc(F)cc2)ccc1Cl [N-(2-{[4-({[5-{1-[4-chloro-3-(methyloxy)phenyl]-1-methylethyl}-1-(4-fluorophenyl)-1H-imidazol-2-yl]thio}methyl)-3,5-difluorophenyl]oxy}ethyl)imido dicarbonimidic diamide] | < 100 | < 100 |
| COc1cc(C(C)(C)c2cnc(SCc3c(F)cc(S(=O)(=O)NCCCNC(=N)N)cc3F)n2-c2ccc(F)cc2)ccc1Cl [N-(3-{[amino(imino)methyl]amino}propyl)-4-({[5-{1-[4-chloro-3-(methyloxy)phenyl]-1-methylethyl}-1-(4-fluorophenyl)-1H-imidazol-2-yl]thio}methyl)-3,5-difluorobenzenesulfonamide] | < 100 | < 100 |
| CC(=O)NS(=O)(=O)c1ccc(CSc2ncc(C(C)(C)c3ccc(Cl)c(Cl)c3)n2-c2ccc(F)cc2)c(Cl)c1 [N-({3-chloro-4-[({5-[1-(3,4-dichlorophenyl)-1-methylethyl]-1-(4-fluorophenyl)-1H-imidazol-2-yl}thio)methyl]phenyl}sulfonyl)acetamide] | 100 to 1000 | 100 to 1000 |
| CC(C)(c1ccc(Cl)c(Cl)c1)c1cnc(SCc2ccc(C(=O)NCC(=O)O)cc2F)n1-c1ccc(F)cc1 [N-({4-[({5-[1-(3,4-dichlorophenyl)-1-methylethyl]-1-(4-fluorophenyl)-1H-imidazol-2-yl}thio)methyl]-3-fluorophenyl}carbonyl)glycine] | 100 to 1000 | 100 to 1000 |
| COc1cc(-n2c(C(C)(C)c3ccc(Cl)c(Cl)c3)cnc2SCc2c(F)cc(C(=O)NCCC(=O)O)cc2F)ccc1F [N-({4-[({5-[1-(3,4-dichlorophenyl)-1-methylethyl]-1-[4-fluoro-3-(methyloxy)phenyl]-1H-imidazol-2-yl}thio)methyl]-3,5-difluorophenyl}carbonyl)-beta-alanine] | < 100 | < 100 |
| CC(C)(c1ccc(Cl)c(Cl)c1)c1cnc(CNC2CCN(S(C)(=O)=O)CC2)n1-c1ccc(F)cc1 [N-({5-[1-(3,4-dichlorophenyl)-1-methylethyl]-1-(4-fluorophenyl)-1H-imidazol-2-yl}methyl)-1-(methylsulfonyl)piperidin-4-amine] | 1000 to 10000 | 1000 to 10000 |

Continued, values first:

| EC50 (h-TGR5) [nM] | EC50 (human TGR5 (h-TGR5)) [nM] | SMILES |
| --- | --- | --- |
| 100 to 1000 | 100 to 1000 | CC(C)(c1ccc(Cl)c(Cl)c1)c1cnc(SCc2ccc(F)c(C(=O)NCC(=O)O)c2)n1-c1ccc(F)cc1 [N-({5-[({5-[1-(3,4-dichlorophenyl)-1-methylethyl]-1-(4-fluorophenyl)-1H-imidazol-2-yl}thio)methyl]-2-fluorophenyl}carbonyl)glycine] |
| 100 to 1000 | < 100 | CC(C)(c1ccc(Cl)c(Cl)c1)c1cnc(S(=O)(=O)NCc2ccc(F)cc2Cl)n1-c1ccc(F)cc1 [N-[(2-chloro-4-fluorophenyl)methyl]-5-[1-(3,4-dichlorophenyl)-1-methylethyl]-1-(4-fluorophenyl)-1H-imidazole-2-sulfonamide] |
| 100 to 1000 | 100 to 1000 | CC(C)(c1ccc(Cl)c(Cl)c1)c1cnc(S(=O)(=O)NCc2c(F)cccc2Cl)n1-c1ccc(F)cc1 [N-[(2-chloro-6-fluorophenyl)methyl]-5-[1-(3,4-dichlorophenyl)-1-methylethyl]-1-(4-fluorophenyl)-1H-imidazole-2-sulfonamide] |
| 1000 to 10000 | 1000 to 10000 | COc1cc(C(C)(C)c2cnc(NCc3ccc(Cl)cc3F)n2-c2ccc(F)cc2)ccc1Cl [N-[(4-chloro-2-fluorophenyl)methyl]-5-{1-[4-chloro-3-(methyloxy)phenyl]-1-methylethyl}-1-(4-fluorophenyl)-1H-imidazol-2-amine] |
| < 100 | < 100 | COc1cc(-n2c(C(C)(C)c3ccc(S(N)(=O)=O)c(Cl)c3)cnc2SCc2c(F)cc(C(=O)NCCC(=O)O)cc2F)ccc1F [N-[(4-{[(5-{1-[4-(aminosulfonyl)-3-chlorophenyl]-1-methylethyl}-1-[4-fluoro-3-(methyloxy)phenyl]-1H-imidazol-2-yl)thio]methyl}-3,5-difluorophenyl)carbonyl]-beta-alanine] |
| < 100 | < 100 | COc1cc(-n2c(C(C)(C)c3ccc(S(N)(=O)=O)c(Cl)c3)cnc2SCc2ccc(C(=O)NCCC(=O)O)cc2F)ccc1F [N-[(4-{[(5-{1-[4-(aminosulfonyl)-3-chlorophenyl]-1-methylethyl}-1-[4-fluoro-3-(methyloxy)phenyl]-1H-imidazol-2-yl)thio]methyl}-3-fluorophenyl)carbonyl]-beta-alanine] |
| < 100 | 1000 to 10000 | COc1cc(C(C)(C)c2cnc(SCc3ccc(S(=O)(=O)NC(=O)N4CCC(O)C4)cc3Cl)n2-c2ccc(F)cc2)ccc1Cl (stereo not drawn) [N-{[3-chloro-4-({[5-{1-[4-chloro-3-(methyloxy)phenyl]-1-methylethyl}-1-(4-fluorophenyl)-1H-imidazol-2-yl]thio}methyl)phenyl]sulfonyl}-3-hydroxypyrrolidine-1-carboxamide] |
| < 100 | 100 to 1000 | COc1cc(C(C)(C)c2cnc(SCc3ccc(S(=O)(=O)NC(=O)N4CCCC4)cc3Cl)n2-c2ccc(F)cc2)ccc1Cl [N-{[3-chloro-4-({[5-{1-[4-chloro-3-(methyloxy)phenyl]-1-methylethyl}-1-(4-fluorophenyl)-1H-imidazol-2-yl]thio}methyl)phenyl]sulfonyl}pyrrolidine-1-carboxamide] |
| < 100 | < 100 | COc1cc(C(C)(C)c2cnc(SCc3ccc(C(=O)NCCC(=O)O)cc3F)n2-c2ccc(F)cc2)ccc1Cl [N-{[4-({[5-{1-[4-chloro-3-(methyloxy)phenyl]-1-methylethyl}-1-(4-fluorophenyl)-1H-imidazol-2-yl]thio}methyl)-3-fluorophenyl]carbonyl}-beta-alanine] |
| < 100 | < 100 | COc1ccc(C(C)(C)c2cnc(CN(C)c3c(F)cccc3Cl)n2-c2ccc(F)cc2)cc1OC [N-{[5-{1-[3,4-bis(methyloxy)phenyl]-1-methylethyl}-1-(4-fluorophenyl)-1H-imidazol-2-yl]methyl}-2-chloro-6-fluoro-N-methylaniline] |
| 100 to 1000 | < 100 | COc1ccc(C(C)(C)c2cnc(CNc3c(F)cccc3Cl)n2-c2ccc(F)cc2)cc1OC [N-{[5-{1-[3,4-bis(methyloxy)phenyl]-1-methylethyl}-1-(4-fluorophenyl)-1H-imidazol-2-yl]methyl}-2-chloro-6-fluoroaniline] |
| 100 to 1000 | 100 to 1000 | CC(C)(c1ccc(Cl)c(Cl)c1)c1cnc(SCc2ccc(F)cc2Cl)n1-c1ccc(F)c(CO)c1 [[5-(2-{[(2-chloro-4-fluorophenyl)methyl]thio}-5-[1-(3,4-dichlorophenyl)-1-methylethyl]-1H-imidazol-1-yl)-2-fluorophenyl]methanol] |
